In patent US11279683B2, “Thiophene derivatives as antiviral agents” (ENYO PHARMA, priority 2016, dated 2022):
Read-outs that look alike come from different tables or passages of the source.

Tests used:
p62 = p62 expression measurement; assay type: cell-based
Excerpt: The autophagy-inducing effect has been assessed by LC3 lipidation assay and by p62 expression measurement.

[1] = tested on: H1N1 (influenza A/New Caledonia/20/99); experiment: microbe, parasite or virus in culture; assay type: cell-based
[2] = Influenza A virus, H1N1, A549, 48 h

Compound | p62 expression* (p62) | IC50 [1] | IC50 [1, 2]
O=C(Nc1ccc(Cl)cc1)c1c(NC(=O)C2CCCCC2C(=O)O)sc2c1CCC2 (stereo not drawn) [Compound 57, 2-[[3-[(4-Chlorophenyl)carbamoyl]-5,6-dihydro-4H-cyclopenta[b]thiophen-2-yl]carbamoyl]cyclohexane-cis-carboxylic acid] | down | 7.18 µM | –
O=C(Nc1ccc(Cl)cc1)c1c(NC(=O)C2CCCCC2C(=O)O)sc2cscc12 (stereo not drawn) [Compound 42, 2-[[3-[(4-Chlorophenyl)carbamoyl]thieno[3,4-b]thiophen-2-yl]carbamoyl]cyclohexanecarboxylic acid] | down | – | 3.08 µM
O=C(Nc1ccc(Cl)cc1)c1c(NC(=O)C2CCCCC2C(=O)O)sc2ccccc12 (stereo not drawn) [Compound 41, 2-[[3-[(4-Chlorophenyl)carbamoyl]benzothiophen-2-yl]carbamoyl]cyclohexane carboxylic acid] | down | – | 3.53 µM
CS(=O)(=O)N[C@@H]1CCCC[C@@H]1C(=O)Nc1sc2c(c1C(=O)Nc1ccc(Cl)cc1)CCC2 [Compound 85, N-(4-chlorophenyl)-2-[[(1S,2R)-2-(methanesulfonamido)cyclohexanecarbonyl]amino]-5,6-dihydro-4H-cyclopenta[b]thiophene-3-carboxamide] | – | – | 5.6 µM
O=C(Nc1ccc(Cl)cc1)c1c(NC(=O)[C@H]2CCCC[C@H]2C(=O)NO)sc2c1CCC2 (stereo in doubt) [Compound 90, N-(4-chlorophenyl)-2-[[2-(hydroxycarbamoyl)cyclohexanecarbonyl]amino]-5,6-dihydro-4H-cyclopenta[b]thiophene-3-carboxamide] | – | – | 9 µM
O=C(Nc1ccc(N2CCOCC2)cc1)c1c(NC(=O)C2CCCCC2C(=O)O)sc2c1CCC2 (stereo not drawn) [Compound 15, 2-[[3-[(4-Morpholinophenyl)carbamoyl]-5,6-dihydro-4H-cyclopenta[b]thiophen-2-yl]carbamoyl]cyclohexanecarboxylic acid] | – | – | 11.2 µM
O=C(NC1CCc2ccccc21)c1c(NC(=O)C2CCCCC2C(=O)O)sc2c1CCC2 (stereo not drawn) [Compound 23, 2-[[3-(Indan-1-ylcarbamoyl)-5,6-dihydro-4H-cyclopenta[b]thiophen-2-yl]carbamoyl]cyclohexanecarboxylic acid] | – | – | 6.28 µM
CONC(=O)[C@@H]1CCCC[C@@H]1C(=O)Nc1sc2c(c1C(=O)Nc1ccc(Cl)cc1)CCC2 (stereo in doubt) [Compound 88, N1-[3-[(4-chlorophenyl)carbamoyl]-5,6-dihydro-4H-cyclopenta[b]-thiophen-2-yl]-N2-methoxy-cyclohexane-1,2-dicarboxamide] | – | – | 8.4 µM
O=C(Nc1ccc(Cl)cc1)c1c(NC(=O)C2CCCCC2C(=O)O)sc2c1CCC2 (stereo not drawn) [Compound 49, 2-[[3-[(4-Chlorophenyl)carbamoyl]-5,6-dihydro-4H-cyclopenta[b]thiophen-2-yl]carbamoyl]cyclohexane-trans-carboxylic acid] | – | – | 12.2 µM
